Results published in patent US6737383B1, “Herbicidal oxadiazolidines” (priority 1999, dated 2004).

Key:
surinam grass = test: Test B pre/postemergence surinam grass; assay type: in vivo, Brachiaria decumbens
Outline: (§1)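 Herbicidal effect was estimated by eye on a ten-point control scale after plants spent twelve to sixteen days in a greenhouse following soil or foliar treatment. Foliar sprays targeted plants at one to four leaves; all doses were formulated in a non-phytotoxic solvent with surfactant.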

cocklebur = test: Test B pre/postemergence cocklebur; assay type: in vivo, Xanthium strumarium
Outline: as §1

corn = test: Test B pre/postemergence corn; assay type: in vivo, Zea mays
Outline: as §1

crabgrass = test: Test B pre/postemergence crabgrass; assay type: in vivo, Digitaria sanguinalis
Outline: as §1

giant foxtail = test: Test B pre/postemergence giant foxtail; assay type: in vivo, Setaria faberii
Outline: as §1

morningglory = test: Test B pre/postemergence morningglory; assay type: in vivo, Ipomoea hederacea
Outline: as §1

pigweed = test: Test B pre/postemergence pigweed; assay type: in vivo, Amaranthus retroflexus
Outline: as §1

rape = test: Test B pre/postemergence rape; assay type: in vivo, Brassica napus
Outline: as §1

sugar beet = test: Test B pre/postemergence sugar beet; assay type: in vivo, Beta vulgaris
Outline: as §1

wheat = test: Test B pre/postemergence wheat; assay type: in vivo, Triticum aestivum
Outline: as §1

wild oat = test: Test B pre/postemergence wild oat; assay type: in vivo, Avena fatua
Outline: as §1

purple nutsedge = test: Test B pre/postemergence purple nutsedge; assay type: in vivo, Cyperus rotundus; details: Postemergence
Outline: as §1

rice = test: Test B flood test rice; assay type: in vivo, Oryza sativa
Outline: (§2)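 Each value is a visual injury score relative to controls, with 10 meaning complete control and 0 no effect. Evaluation took place twelve to sixteen days after the 2-leaf-stage plants were treated and kept in the greenhouse.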

smallflower flatsedge = test: Test B flood test smallflower flatsedge; assay type: in vivo, Cyperus difformis
Outline: as §2

duck salad = test: Test B flood test duck salad; assay type: in vivo, Heteranthera limosa
Outline: as §2

bamyardgrass = test: Test B flood test barnyardgrass; assay type: in vivo, Echinochloa crus-galli
Outline: as §2

[1] = Preemergence, Rate 62 g/ha, scale of 0 to 10 where 0 is no effect and 10 is complete control
[2] = Preemergence, Rate 500 g/ha, scale of 0 to 10 where 0 is no effect and 10 is complete control
[3] = Rate 62 g/ha, Postemergence, scale of 0 to 10 where 0 is no effect and 10 is complete control
[4] = Rate 125 g/ha, Preemergence, scale of 0 to 10 where 0 is no effect and 10 is complete control
[5] = Preemergence, Rate 250 g/ha, scale of 0 to 10 where 0 is no effect and 10 is complete control
[6] = Rate 125 g/ha, Postemergence, scale 0 to 10
[7] = Rate 500 g/ha, Postemergence, scale 0 to 10
[8] = Rate 62 g/ha, headed Pre-emergence (flood test species), scale 0 to 10 (0 no effect, 10 complete control)
[9] = Rate 125 g/ha, Pre-emergence, flood test species, scale 0 to 10 where 0 is no effect and 10 is complete control
[10] = Rate 250 g/ha, Pre-emergence, flood-test species, scale 0 to 10, 0 is no effect, 10 is complete control
[11] = Rate 500 g/ha, Pre-emergence, flood test species, scale 0 to 10 (0 no effect, 10 complete control)

SMILES: CC(=O)OCCCCn1c(=O)on(C(=O)N(c2ccc(F)cc2)C(C)C)c1=O [Compound 211]
- B. signalgrass plant response rating (surinam grass; [1]): 0
- B. signalgrass plant response rating (surinam grass; Preemergence, Rate 250 g/ha, scale 0 to 10, 0 is no effect, 10 is complete control): 0
- Plant response rating, B. signalgrass (surinam grass; [2]): 5
- B. signalgrass plant response rating (surinam grass; [3]): 0
- B. signalgrass plant response rating (surinam grass; Rate 125 g/ha, Postemergence, scale 0 (no effect) to 10 (complete control)): 0
- B. signalgrass plant response rating (surinam grass; [4]): 0
- Plant response rating (0 to 10; 0 is no effect, 10 is complete control), B. signalgrass (surinam grass; Rate 250 g/ha, Postemergence): 0
- B. signalgrass plant response rating (surinam grass; Rate 500 g/ha, Postemergence, scale 0 to 10, 0 no effect, 10 complete control): 0
- Cocklebur plant response rating (cocklebur; [1]): 0
- Cocklebur plant response rating (cocklebur; [5]): 0
- Plant response rating, Cocklebur (cocklebur; [2]): 0
- Cocklebur plant response rating (cocklebur; [3]): 0
- Cocklebur plant response rating (cocklebur; [6]): 0
- Cocklebur plant response rating (cocklebur; [4]): 0
- Plant response rating (0 to 10; 0 is no effect, 10 is complete control), Cocklebur (cocklebur; Rate 250 g/ha, Postemergence): 0
- Cocklebur plant response rating (cocklebur; [7]): 0
- Corn plant response rating (corn; [1]): 0
- Corn plant response rating (corn; [5]): 0
- Plant response rating, Corn (corn; [2]): 0
- Corn plant response rating (corn; [3]): 0
- Corn plant response rating (corn; [6]): 0
- Corn plant response rating (corn; [4]): 0
- Plant response rating (0 to 10; 0 is no effect, 10 is complete control), Corn (corn; Rate 250 g/ha, Postemergence): 0
- Corn plant response rating (corn; [7]): 0
- Crabgrass plant response rating (crabgrass; [1]): 0
- Crabgrass plant response rating (crabgrass; [5]): 3
- Plant response rating, Crabgrass (crabgrass; [2]): 3
- Crabgrass plant response rating (crabgrass; [3]): 0
- Crabgrass plant response rating (crabgrass; [6]): 0
- Crabgrass plant response rating (crabgrass; [4]): 0
- Plant response rating (0 to 10; 0 is no effect, 10 is complete control), Crabgrass (crabgrass; Rate 250 g/ha, Postemergence): 1
- Crabgrass plant response rating (crabgrass; [7]): 3
- Giant foxtail plant response rating (giant foxtail; [1]): 3
- Giant foxtail plant response rating (giant foxtail; [5]): 7
- Plant response rating, Giant foxtail (giant foxtail; [2]): 8
- Giant foxtail plant response rating (giant foxtail; [3]): 0
- Giant foxtail plant response rating (giant foxtail; [6]): 0
- Giant foxtail plant response rating (giant foxtail; [4]): 4
- Plant response rating (0 to 10; 0 is no effect, 10 is complete control), Giant foxtail (giant foxtail; Rate 250 g/ha, Postemergence): 2
- Giant foxtail plant response rating (giant foxtail; [7]): 3
- Morningglory plant response rating (morningglory; [1]): 0
- Morningglory plant response rating (morningglory; [5]): 0
- Plant response rating, Morningglory (morningglory; [2]): 0
- Morningglory plant response rating (morningglory; [3]): 4
- Morningglory plant response rating (morningglory; [6]): 6
- Morningglory plant response rating (morningglory; [4]): 0
- Plant response rating (0 to 10; 0 is no effect, 10 is complete control), Morningglory (morningglory; Rate 250 g/ha, Postemergence): 6
- Morningglory plant response rating (morningglory; [7]): 6
- Redroot pigweed plant response rating (pigweed; [1]): 0
- Redroot pigweed plant response rating (pigweed; [5]): 3
- Plant response rating, Redroot pigweed (pigweed; [2]): 7
- Redroot pigweed plant response rating (pigweed; [3]): 2
- Redroot pigweed plant response rating (pigweed; [6]): 4
- Redroot pigweed plant response rating (pigweed; [4]): 0
- Plant response rating (0 to 10; 0 is no effect, 10 is complete control), Redroot pigweed (pigweed; Rate 250 g/ha, Postemergence): 4
- Redroot pigweed plant response rating (pigweed; [7]): 5
- Rape plant response rating (rape; [1]): 0
- Rape plant response rating (rape; [5]): 0
- Plant response rating, Rape (rape; [2]): 4
- Rape plant response rating (rape; [3]): 2
- Rape plant response rating (rape; [6]): 2
- Rape plant response rating (rape; [4]): 0
- Plant response rating (0 to 10; 0 is no effect, 10 is complete control), Rape (rape; Rate 250 g/ha, Postemergence): 2
- Rape plant response rating (rape; [7]): 3
- Sugarbeets plant response rating (sugar beet; [1]): 0
- Sugarbeets plant response rating (sugar beet; [5]): 0
- Plant response rating, Sugarbeets (sugar beet; [2]): 8
- Sugarbeets plant response rating (sugar beet; [3]): 0
- Sugarbeets plant response rating (sugar beet; [6]): 2
- Sugarbeets plant response rating (sugar beet; [4]): 0
- Plant response rating (0 to 10; 0 is no effect, 10 is complete control), Sugarbeets (sugar beet; Rate 250 g/ha, Postemergence): 2
- Sugarbeets plant response rating (sugar beet; [7]): 2
- Wheat plant response rating (wheat; [1]): 0
- Wheat plant response rating (wheat; [5]): 0
- Plant response rating, Wheat (wheat; [2]): 5
- Wheat plant response rating (wheat; [3]): 0
- Wheat plant response rating (wheat; [6]): 0
- Wheat plant response rating (wheat; [4]): 0
- Plant response rating (0 to 10; 0 is no effect, 10 is complete control), Wheat (wheat; Rate 250 g/ha, Postemergence): 0
- Wild oats plant response rating (wild oat; [1]): 0
- Wild oats plant response rating (wild oat; [5]): 5
- Plant response rating, Wild oats (wild oat; [2]): 5
- Wild oats plant response rating (wild oat; [3]): 0
- Wild oats plant response rating (wild oat; [6]): 0
- Wild oats plant response rating (wild oat; [4]): 4
- Plant response rating (0 to 10; 0 is no effect, 10 is complete control), Wild oats (wild oat; Rate 250 g/ha, Postemergence): 0
- Nutsedge plant response rating (purple nutsedge; Rate 62 g/ha, scale of 0 to 10 where 0 is no effect and 10 is complete control): 0
- Nutsedge plant response rating (purple nutsedge; Rate 125 g/ha, scale 0 to 10): 0
- Plant response rating (0 to 10; 0 is no effect, 10 is complete control), Nutsedge (purple nutsedge; Rate 250 g/ha): 0
- Nutsedge plant response rating (purple nutsedge; Rate 500 g/ha, scale 0 to 10): 0
- Rice plant response rating (rice; [8]): 0
- Rice plant response rating (rice; [9]): 0
- Rice plant response rating (rice; [10]): 0
- Rice plant response rating (rice; [11]): 0
- S. Flatsedge plant response rating (smallflower flatsedge; [8]): 0
- S. Flatsedge plant response rating (smallflower flatsedge; [9]): 0
- S. Flatsedge plant response rating (smallflower flatsedge; [10]): 0
- S. Flatsedge plant response rating (smallflower flatsedge; [11]): 0
- Ducksalad plant response rating (duck salad; [8]): 0
- Ducksalad plant response rating (duck salad; [9]): 0
- Ducksalad plant response rating (duck salad; [10]): 0
- Ducksalad plant response rating (duck salad; [11]): 0
- Barnyardgrass plant response rating (bamyardgrass; [8]): 0
- Barnyardgrass plant response rating (bamyardgrass; [9]): 0
- Barnyardgrass plant response rating (bamyardgrass; [10]): 0
- Barnyardgrass plant response rating (bamyardgrass; [11]): 0
